Measurements reported in patent publication US20240238426A1, “PROTEIN ACYLATION MODULATION BY HETEROBIFUNCTIONAL MOLECULES” (THE SCRIPPS RESEARCH INSTITUTE, priority 2021, published 2024).

Legend:
[1] = test system: T1, FKBP12^F36V-p53 (Homo sapiens, F37V); assay: Immunoblot analysis of FKBP12^F36V-p53 acetylation in H1299 cells; assay type: cell-based
T1 construct: expressed in transfected cells
Experimental: Lentivirus Production and Transduction: Lentiviral production was performed using HEK293T cells, which were co-transfected with pMD2.G (Addgene, #12259), psPAX2 (Addgene, #12260), and AceTAG lentiviral plasmids using PEI (Polysciences Inc). Viral particles were collected 72 h after transfection and filtered through a […] membrane. A range of dilutions of the lentivirus in DMEM complete and 10 μg/mL polybrene were added to HeLa, H1299, or HeLa RelA KO cell lines. Transduced cells were selected with 1 μg/mL or 2 μg/mL puromycin.
Immunoblotting: Cells were harvested in cold DPBS by scraping and washed with cold DPBS twice. Cell pellets were resuspended in DPBS supplemented with 5 mM sodium butyrate, 20 mM Nicotinamide, and 1X Halt Protease Inhibitor Cocktail and lysed by sonication (15 ms on, 40 ms off, 15% amplitude, 1s total on x 3). Protein concentration was determined using DC Protein Assay (Bio-Rad) and absorbance read using a CLARIOstar plate reader following manufacturer's instructions. Samples with equal protein content were boiled in 4X SDS gel loading buffer for 10 min. Proteins were separated by 10%, 12.5%, or 15% SDS-polyacrylamide gel electrophoresis and transferred to PVDF membranes using Trans-Blot Turbo RTA Mini […] LF PVDF Transfer Kit (Bio-Rad). Membranes were incubated for 1 h at room temperature with blocking buffer, followed by incubating overnight at 4° C. with primary antibodies. After washing in TBST, the secondary antibodies were incubated with the membranes at room temperature for 1 h. The membranes were washed with TBST for three times and visualized on a Bio-Rad ChemiDoc MP Imaging System with Clarity Max Western ECL substrate (Bio-Rad) or SuperSignal West Femto Chemiluminescent substrate proprietary luminol and peroxide solution kit (Thermo Scientific Pierce).

[2] = target: T2, H3.3-FKBP12^F36V (Homo sapiens, UniProt P62942+Q09472, F37V); assay: Quantitative proteomic (TMT MS) analysis of H3.3 acetylation; assay type: cell-based; settings: 625 nM AceTAG-1 vs DMSO, FIG. 5A
T2 construct: expressed in transfected cells
Experimental: Sample preparation: Cells were split in 10 cm dishes in indicated media. The probes were added once the cells grew to 60%-70% confluency and incubated for indicated time. The cells were harvested and washed with cold DPBS twice. The pelleted cells were lysed in 1 mL lysis buffer, containing 10 mM Tris pH 7.5, 300 mM NaCl, 0.1% (v/v) NP40, 5 mM sodium butyrate, 20 mM Nicotinamide, and 1X Halt Protease Inhibitor, followed by centrifuging for 5 min at 1,000 g at 4° C. The pellets were resuspended in benzonase buffer, containing 50 mM Tris pH 7.5, 300 mM NaCl, 0.5% NP40, and 2.5 mM MgCl2. Protein concentration was normalized by DC Protein Assay (Bio-Rad) and equal amount of protein was subjected to 50 U/100 ml benzonase nuclease (Millipore Sigma) treatment.
Samples with benzonase were incubated on ice for 30 min and centrifuged at 300 g for 3 min at 4° C. to obtain soluble chromatin fraction. Samples were diluted with dilution buffer, containing 50 mM Tris pH 7.5, 300 mM NaCl, 0.5% NP40, and 15 mM EDTA to quench the benzonase activity. Protein concentration was normalized again by DC Protein Assay (Bio-Rad) and equal amount of protein was used for HA-tag protein enrichment as described above. The beads were washed with lysis buffer and DPBS and incubated with 8 M urea and boiled in 4X SDS gel loading buffer at 95° C. for 15 min. […]

[3] = test system: TP53 target genes; assay: RNA-seq analysis of FKBP12^F36V-p53 H1299 cells; assay type: cell-based, Human
[4] = 3 μM AceTAG-1 compared to vehicle, FIG. 7F

T1 sequence (P62942 2-108 F37V limits assumed): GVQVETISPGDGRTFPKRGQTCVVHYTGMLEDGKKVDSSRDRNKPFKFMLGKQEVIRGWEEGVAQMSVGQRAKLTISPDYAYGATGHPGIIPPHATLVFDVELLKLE
T1 sequence (Q09472 2-2414 limits assumed, stated change not applied, further chain): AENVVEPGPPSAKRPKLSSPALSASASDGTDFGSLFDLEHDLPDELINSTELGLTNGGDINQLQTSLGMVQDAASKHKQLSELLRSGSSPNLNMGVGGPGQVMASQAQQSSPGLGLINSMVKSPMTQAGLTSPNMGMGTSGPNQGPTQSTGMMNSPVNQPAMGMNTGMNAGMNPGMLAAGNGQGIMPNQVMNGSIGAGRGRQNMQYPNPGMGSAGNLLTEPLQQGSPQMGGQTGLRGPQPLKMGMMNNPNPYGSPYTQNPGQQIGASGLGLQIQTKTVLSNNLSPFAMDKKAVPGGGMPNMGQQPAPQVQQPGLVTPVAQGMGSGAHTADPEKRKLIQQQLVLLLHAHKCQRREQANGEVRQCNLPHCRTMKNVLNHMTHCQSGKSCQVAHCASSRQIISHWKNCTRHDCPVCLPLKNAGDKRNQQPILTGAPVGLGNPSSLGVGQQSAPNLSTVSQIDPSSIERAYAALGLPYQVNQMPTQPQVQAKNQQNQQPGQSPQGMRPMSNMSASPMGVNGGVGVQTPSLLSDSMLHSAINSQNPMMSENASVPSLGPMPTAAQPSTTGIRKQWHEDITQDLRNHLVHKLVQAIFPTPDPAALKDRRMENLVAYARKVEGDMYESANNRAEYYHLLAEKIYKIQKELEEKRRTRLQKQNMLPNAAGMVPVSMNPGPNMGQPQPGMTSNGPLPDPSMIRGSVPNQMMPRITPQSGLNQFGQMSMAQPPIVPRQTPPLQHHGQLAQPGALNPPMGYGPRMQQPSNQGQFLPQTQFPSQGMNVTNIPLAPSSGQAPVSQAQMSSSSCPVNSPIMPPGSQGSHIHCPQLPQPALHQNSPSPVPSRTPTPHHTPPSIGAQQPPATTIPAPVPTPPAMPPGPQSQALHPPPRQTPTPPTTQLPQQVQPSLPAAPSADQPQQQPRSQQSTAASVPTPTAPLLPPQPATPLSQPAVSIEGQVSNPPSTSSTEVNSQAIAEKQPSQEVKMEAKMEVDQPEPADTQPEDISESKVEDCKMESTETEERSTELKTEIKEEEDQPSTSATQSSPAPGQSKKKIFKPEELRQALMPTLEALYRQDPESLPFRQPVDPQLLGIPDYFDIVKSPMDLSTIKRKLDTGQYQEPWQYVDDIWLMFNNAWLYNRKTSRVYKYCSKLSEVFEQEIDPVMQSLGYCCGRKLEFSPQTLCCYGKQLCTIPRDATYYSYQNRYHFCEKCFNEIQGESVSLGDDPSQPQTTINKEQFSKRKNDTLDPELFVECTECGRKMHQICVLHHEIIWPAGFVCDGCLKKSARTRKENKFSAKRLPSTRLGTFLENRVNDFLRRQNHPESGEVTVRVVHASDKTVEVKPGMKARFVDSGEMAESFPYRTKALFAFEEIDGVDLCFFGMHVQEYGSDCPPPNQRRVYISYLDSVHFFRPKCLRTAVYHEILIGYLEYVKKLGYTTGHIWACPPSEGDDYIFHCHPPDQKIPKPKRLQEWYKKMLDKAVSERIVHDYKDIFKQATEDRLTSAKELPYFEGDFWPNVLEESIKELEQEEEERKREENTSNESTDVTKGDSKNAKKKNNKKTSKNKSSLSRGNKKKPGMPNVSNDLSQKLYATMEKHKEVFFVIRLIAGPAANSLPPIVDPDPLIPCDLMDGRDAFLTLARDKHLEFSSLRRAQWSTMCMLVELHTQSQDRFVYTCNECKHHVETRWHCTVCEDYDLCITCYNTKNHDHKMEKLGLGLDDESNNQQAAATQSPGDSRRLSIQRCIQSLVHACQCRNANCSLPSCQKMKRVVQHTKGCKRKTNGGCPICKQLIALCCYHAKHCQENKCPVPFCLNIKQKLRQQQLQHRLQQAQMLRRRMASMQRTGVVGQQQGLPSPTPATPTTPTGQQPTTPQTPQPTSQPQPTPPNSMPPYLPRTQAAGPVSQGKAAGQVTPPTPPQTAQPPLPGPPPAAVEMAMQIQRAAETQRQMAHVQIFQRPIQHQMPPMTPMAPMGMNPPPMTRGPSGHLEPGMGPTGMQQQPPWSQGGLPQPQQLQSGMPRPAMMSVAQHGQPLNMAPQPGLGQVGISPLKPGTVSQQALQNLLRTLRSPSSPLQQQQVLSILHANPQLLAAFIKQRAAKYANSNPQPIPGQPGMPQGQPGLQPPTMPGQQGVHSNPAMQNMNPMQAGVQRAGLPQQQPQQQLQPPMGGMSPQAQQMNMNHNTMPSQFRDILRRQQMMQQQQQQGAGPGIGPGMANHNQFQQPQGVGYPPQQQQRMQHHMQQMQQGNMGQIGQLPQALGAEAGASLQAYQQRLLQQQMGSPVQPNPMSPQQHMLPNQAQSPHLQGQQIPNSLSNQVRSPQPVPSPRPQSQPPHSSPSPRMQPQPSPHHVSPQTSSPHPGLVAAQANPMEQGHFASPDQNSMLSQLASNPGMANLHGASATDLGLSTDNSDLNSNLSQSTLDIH
T2 sequence (P62942 2-108 F37V limits assumed): as the sequence (P62942 2-108 F37V limits assumed) above
T2 sequence (Q09472 2-2414 limits assumed, stated change not applied): as the sequence (Q09472 2-2414 limits assumed, stated change not applied, further chain) above

## CC[C@H](C(=O)N1CCCC[C@H]1C(=O)O[C@H](CCc1ccc(OC)c(OC)c1)c1cccc(OCC(=O)NCCOCCOCCC(=O)NCCOc2ccc(CCc3nc4cc(-c5c(C)noc5C)ccc4n3CCN3CCOCC3)cc2)c1)c1cc(OC)c(OC)c(OC)c1 [AceTAG-1, (R)-3-(3,4-dimethoxyphenyl)-1-(3-((15-(4-(2-(5-(3,5-dimethylisoxazol-4-yl)-1-(2-morpholinoethyl)-1H-benzo[d]imidazol-2-yl)ethyl)phenoxy)-2,12-dioxo-6,9-dioxa-3,13-diazapentadecyl)oxy)phenyl)propyl (S)-1-((S)-2-(3,4,5-trimethoxyphenyl)butanoyl)piperidine-2-carboxylate]
[1]; FIG. 6C
  p53 acetylation at higher AceTAG-1 concentrations: apparent acetylation autoinhibition
[1]; FIG. 9E
  treatment time after which a significant level of p53 acetylation is detectable: ~10 min
[1]; indicated doses, 2 hr, FIG. 6C
  p53 acetylation at K305, K373, and K382: strong AceTAG-1-dependent acetylation
[2]
  acetylation at K18, K23, and K27 by quantitative MS: substantial increases
  acetylation at other identified lysines on H3.3 by quantitative MS: no acetylation
[3]; 3 μM AceTAG-1, RNA-seq
  increases in apoptotic (Bax, Puma), metabolic (GLS2) or autoregulatory (Mdm2) targets: little to no increases
[3]; [4]
  upregulation of CDKNIA transcript: ~2.8 fold
  upregulation of GDF15 transcript: ~3 fold
  upregulation of SLC7A11 transcript: ~1.7 fold
  upregulation of TP5313 transcript: ~1.6 fold
